In paper PMC9358475 (The Journal of Biological Chemistry, 2022) one finds IC50 data, which are given here for two molecules.

SMILES strings stand for the structures.

Assay [1] relates to ERK1/2. Briefly: ERK-KTR live-cell ERK activity reporter in SH-SY5Y, […] h. In kind it is cell-based.
Assay [2] deals with ERK1/2. Briefly: ERK-KTR live-cell ERK activity reporter in HCT-116, […] h. In kind it is cell-based.

`O=C(Nc1ccc2[nH]nc(-c3ccncc3)c2c1)[C@@H]1CCN(CC(=O)N2CCN(c3ccc(-c4ncccn4)cc3)CC2)C1` [SCH, SCH772984] yielded a half-maximal inhibitory concentration (IC50) in assay [1] of 75 nM.

Regarding `CC(C)Nc1cc(-c2c[nH]c(C(=O)N[C@H](CO)c3cccc(Cl)c3)c2)c(Cl)cn1` [Ulix, ulixertinib], in assay [2], the half-maximal inhibitory concentration (IC50) is 32 nM.
